The results in this text go back to US12630600B2 (MEDIMMUNE LIMITED, priority 2022, dated 2026).

The target in experiment [1] is T1, human GLP-1 receptor (hGLP-1R) (Homo sapiens, UniProt P43220).
T1 construct: expressed in transfected cells; host or cells: CHO
The experiment is described as follows: cAMP production (HTRF) in CHO cells expressing human GLP-1 receptor. Format: cell-based. To be noted: for % Relative Potency Ratio: % GLP-1R activity relative to GLP-1 / % GlucR activity relative to glucagon; for EC50: geometric mean, cAMP. In general terms: Changes in cAMP serve as a functional read-out for many G protein-coupled receptors.

For experiment [2], the target named is T2, human glucagon receptor (hGCGR) (Homo sapiens, UniProt P47871).
T2 construct: expressed in transfected cells; host or cells: CHO
T2 sequence (P47871 26-477): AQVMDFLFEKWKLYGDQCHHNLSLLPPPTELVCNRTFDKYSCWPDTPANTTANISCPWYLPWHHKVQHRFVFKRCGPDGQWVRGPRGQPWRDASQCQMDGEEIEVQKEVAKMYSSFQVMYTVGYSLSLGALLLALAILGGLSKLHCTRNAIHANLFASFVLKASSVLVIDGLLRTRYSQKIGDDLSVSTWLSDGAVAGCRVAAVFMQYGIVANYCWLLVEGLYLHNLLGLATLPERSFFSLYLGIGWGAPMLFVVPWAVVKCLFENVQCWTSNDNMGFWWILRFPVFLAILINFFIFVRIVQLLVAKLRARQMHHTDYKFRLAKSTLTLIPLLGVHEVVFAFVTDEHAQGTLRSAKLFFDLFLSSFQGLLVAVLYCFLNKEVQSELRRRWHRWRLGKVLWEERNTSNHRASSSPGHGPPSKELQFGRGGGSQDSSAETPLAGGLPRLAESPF
The experiment is described as follows: cAMP production (HTRF) in CHO cells expressing human glucagon receptor. Format: cell-based.

[3] abbreviates: Table 9, peptides modified at position 10, geometric mean, CHO cells, read-out: hGluc-R EC50.
Setting [4] is: Table 10, peptides modified at position 13, geometric mean, CHO cells, read-out: hGluc-R EC50.

Each structure is given as a SMILES string. Read-outs that look alike come from different tables or passages of the source. Starred links: 1 amine or outer side, 2 acyl side, 3 side chain; linkers in the order of their positions; H or OH if unused. Non-standard residues stand in square brackets, D forms with d. Residues, ends and D or L forms follow the SMILES beside them. Groups on a side chain read outwards from the residue. *: point of attachment. C20 diacid = O=C(O)CCCCCCCCCCCCCCCCCCC(=O)*; C18 diacid = O=C(O)CCCCCCCCCCCCCCCCC(=O)*; Dip = N[C@H](C(=O)O)C(c1ccccc1)c1ccccc1; γGlu = O=C(O)[C@H](CCC(=O)[*:2])N[*:1]; X3 = O=C(CN(Cc1c[nH]cn1)[*:1])[*:2]; Palmitoyl = CCCCCCCCCCCCCCCC(=O)*; αMeF = C[C@](N)(Cc1ccccc1)C(=O)O; PEG2 = NCCOCCOCCC(=O)O; AEEA = NCCOCCOCC(=O)O; Aib = CC(C)(N)C(=O)O

By EC50 is commonly meant the concentration at which the effect is half-maximal.

T1 sequence (P43220 24-463): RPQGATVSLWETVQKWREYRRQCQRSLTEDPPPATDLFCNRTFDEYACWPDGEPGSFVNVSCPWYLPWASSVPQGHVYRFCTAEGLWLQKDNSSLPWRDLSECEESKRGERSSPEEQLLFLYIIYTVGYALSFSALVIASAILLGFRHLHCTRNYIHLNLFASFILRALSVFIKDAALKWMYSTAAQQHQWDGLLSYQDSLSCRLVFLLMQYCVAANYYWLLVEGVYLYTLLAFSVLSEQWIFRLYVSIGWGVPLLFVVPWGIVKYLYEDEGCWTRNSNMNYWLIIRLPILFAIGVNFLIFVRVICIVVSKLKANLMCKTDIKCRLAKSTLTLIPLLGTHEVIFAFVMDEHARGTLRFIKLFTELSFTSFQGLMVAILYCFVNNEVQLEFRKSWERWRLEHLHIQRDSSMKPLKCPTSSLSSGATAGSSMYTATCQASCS

Consider `CCCCCCCCCCCCCCCC(=O)N[C@@H](CCC(=O)NCCOCCOCCC(=O)NCCOCCOCCC(=O)NCCCC[C@H](NC(=O)[C@H](CC(=O)O)NC(=O)[C@H](CO)NC(=O)[C@@H](NC(=O)[C@](C)(Cc1ccccc1)NC(=O)[C@H](CO)NC(=O)CNC(=O)[C@H](CCC(N)=O)NC(=O)C(C)(C)NC(=O)[C@@H](N)Cc1c[nH]cn1)[C@@H](C)O)C(=O)N[C@@H](CO)C(=O)N[C@@H](CCCCN)C(=O)N[C@H](C(=O)N[C@@H](CC(C)C)C(=O)N[C@@H](CC(=O)O)C(=O)N[C@@H](CO)C(=O)N[C@@H](CCCNC(=N)N)C(=O)N[C@@H](C)C(=O)N[C@@H](C)C(=O)N[C@@H](CCC(N)=O)C(=O)N[C@@H](CC(=O)O)C(=O)N[C@@](C)(Cc1ccccc1)C(=O)N[C@H](C(=O)N[C@@H](CCC(=O)O)C(=O)N[C@@H](Cc1c[nH]c2ccccc12)C(=O)N[C@H](C(=O)N[C@@H](C)C(=O)N[C@@H](CC(N)=O)C(=O)N[C@H](C(N)=O)[C@@H](C)O)[C@@H](C)CC)C(C)C)[C@@H](C)CC)C(=O)O` [Peptide 396] (H-H[Aib]QGS[αMeF]TSDK([PEG2-PEG2-γGlu-Palmitoyl])SKILDSRAAQD[αMeF]VEWIANT-NH2), for which, in experiment [1] (Table 9), the “% Relative Potency Ratio” value is 40.2. Besides, the EC50 in experiment [2] (setting [3]) came to 11.8 pM.

Take `CC[C@H](C)[C@H](NC(=O)C(C)(C)NC(=O)[C@H](CCC(N)=O)NC(=O)[C@@H](NC(=O)[C@](C)(Cc1ccccc1)NC(=O)[C@H](CC(=O)O)NC(=O)[C@H](CCC(N)=O)NC(=O)[C@H](C)NC(=O)[C@H](C)NC(=O)[C@H](CCCNC(=N)N)NC(=O)[C@H](CO)NC(=O)[C@H](CC(=O)O)NC(=O)[C@H](CC(C)C)NC(=O)[C@](C)(Cc1ccccc1)NC(=O)[C@H](CCCCN)NC(=O)[C@H](CO)NC(=O)[C@H](CCCCNC(=O)COCCOCCNC(=O)COCCOCCNC(=O)CC[C@H](NC(=O)CCCCCCCCCCCCCCCCC(=O)O)C(=O)O)NC(=O)[C@H](CC(=O)O)NC(=O)[C@H](CO)NC(=O)[C@@H](NC(=O)[C@](C)(Cc1ccccc1)NC(=O)[C@H](CO)NC(=O)CNC(=O)[C@H](Cc1c[nH]cn1)NC(=O)C(C)(C)NC(=O)[C@@H](N)Cc1c[nH]cn1)[C@@H](C)O)C(C)C)C(=O)N[C@@H](C)C(=O)N[C@@H](CC(N)=O)C(=O)N[C@H](C(N)=O)[C@@H](C)O` [Peptide 392] (H-H[Aib]HGS[αMeF]TSDK([AEEA-AEEA-γGlu-C18 diacid])SK[αMeF]LDSRAAQD[αMeF]VQ[Aib]IANT-NH2): the EC50 in experiment [1] (Table 9, peptides modified at position 10, CHO cells, read-out: hGLP-1R EC50) came out at 312 pM; in experiment [2] (setting [3]), 6920 pM. In experiment [1] (Table 9), the “% Relative Potency Ratio” value came to 43.8.

For `CC[C@H](C)[C@H](NC(=O)[C@@H](NC(=O)C(C)(C)NC(=O)[C@H](CCC(=O)O)NC(=O)[C@@H](NC(=O)[C@](C)(Cc1ccccc1)NC(=O)[C@H](CC(=O)O)NC(=O)[C@H](CCC(N)=O)NC(=O)[C@H](C)NC(=O)[C@H](C)NC(=O)[C@H](CCCCNC(=O)CCOCCOCCNC(=O)CCOCCOCCNC(=O)CC[C@H](NC(=O)CC[C@H](NC(=O)CCCCCCCCCCCCCCCCC(=O)O)C(=O)O)C(=O)O)NC(=O)[C@H](CO)NC(=O)[C@H](CC(=O)O)NC(=O)[C@H](CC(C)C)NC(=O)[C@@H](NC(=O)[C@H](CCCCN)NC(=O)[C@H](CO)NC(=O)[C@@H](NC(=O)[C@H](CC(=O)O)NC(=O)[C@H](CO)NC(=O)[C@@H](NC(=O)[C@](C)(Cc1ccccc1)NC(=O)[C@H](CO)NC(=O)CNC(=O)[C@H](CCC(N)=O)NC(=O)[C@H](CO)NC(=O)[C@@H](N)Cc1c[nH]cn1)[C@@H](C)O)C(C)C)C(c1ccccc1)c1ccccc1)C(C)C)[C@@H](C)CC)C(=O)N[C@@H](CC(N)=O)C(=O)N[C@H](C(N)=O)[C@@H](C)O` [Peptide 65] (H-HSQGS[αMeF]TSDVSK[Dip]LDSK([PEG2-PEG2-γGlu-γGlu-C18 diacid])AAQD[αMeF]VE[Aib]IINT-NH2), the EC50 amounted to 1230 pM in experiment [1] (Table 6, modification at position 17, CHO cells expressing hGLP-1R, read-out: hGLP-1R EC50) and 2060 pM in experiment [2] (Table 6, modification at position 17, CHO cells expressing hGCGR, geometric mean, read-out: hGluc-R EC50). Moreover, in experiment [1] (Table 6), the “% Relative Potency Ratio” value is given as 3.3.

Turning to `CCCCCCCCCCCCCCCC(=O)N[C@@H](CCC(=O)NCCOCCOCCC(=O)NCCOCCOCCC(=O)NCCCC[C@H](NC(=O)[C@H](CCCCN)NC(=O)[C@H](CO)NC(=O)[C@@H](NC(=O)[C@H](CC(=O)O)NC(=O)[C@H](CO)NC(=O)[C@@H](NC(=O)[C@](C)(Cc1ccccc1)NC(=O)[C@H](CO)NC(=O)CNC(=O)[C@H](CCC(N)=O)NC(=O)C(C)(C)NC(=O)[C@@H](N)Cc1c[nH]cn1)[C@@H](C)O)C(C)C)C(=O)N[C@@H](CC(C)C)C(=O)N[C@@H](CC(=O)O)C(=O)N[C@@H](CO)C(=O)N[C@@H](CCCNC(=N)N)C(=O)N[C@@H](C)C(=O)N[C@@H](C)C(=O)N[C@@H](CCC(N)=O)C(=O)N[C@@H](CC(=O)O)C(=O)N[C@@](C)(Cc1ccccc1)C(=O)N[C@H](C(=O)N[C@@H](CCC(=O)O)C(=O)N[C@@H](Cc1c[nH]c2ccccc12)C(=O)N[C@H](C(=O)N[C@@H](C)C(=O)N[C@@H](CC(N)=O)C(=O)N[C@H](C(N)=O)[C@@H](C)O)[C@@H](C)CC)C(C)C)C(=O)O` [Peptide 401] (H-H[Aib]QGS[αMeF]TSDVSKK([PEG2-PEG2-γGlu-Palmitoyl])LDSRAAQD[αMeF]VEWIANT-NH2), in experiment [1] (Table 10), the “% Relative Potency Ratio” value is listed as 32.3. Further, the EC50 in experiment [2] (setting [4]) amounted to 9.54 pM.

As to `CC[C@H](C)[C@H](NC(=O)C(C)(C)NC(=O)[C@H](CCC(N)=O)NC(=O)[C@@H](NC(=O)[C@](C)(Cc1ccccc1)NC(=O)[C@H](CC(=O)O)NC(=O)[C@H](CCC(N)=O)NC(=O)[C@H](C)NC(=O)[C@H](C)NC(=O)[C@H](CCCNC(=N)N)NC(=O)[C@H](CO)NC(=O)[C@H](CC(=O)O)NC(=O)[C@H](CC(C)C)NC(=O)[C@H](CCCCNC(=O)COCCOCCNC(=O)COCCOCCNC(=O)CC[C@H](NC(=O)CC[C@H](NC(=O)CCCCCCCCCCCCCCCCCCC(=O)O)C(=O)O)C(=O)O)NC(=O)[C@H](CCCCN)NC(=O)[C@H](CO)NC(=O)[C@@H](NC(=O)[C@H](CC(=O)O)NC(=O)[C@H](CO)NC(=O)[C@@H](NC(=O)[C@](C)(Cc1ccccc1)NC(=O)[C@H](CO)NC(=O)CNC(=O)[C@H](Cc1c[nH]cn1)NC(=O)C(C)(C)NC(=O)[C@@H](N)Cc1c[nH]cn1)[C@@H](C)O)C(C)C)C(C)C)C(=O)N[C@@H](C)C(=O)N[C@@H](CC(N)=O)C(=O)N[C@H](C(N)=O)[C@@H](C)O` [Peptide 405] (H-H[Aib]HGS[αMeF]TSDVSKK([AEEA-AEEA-γGlu-γGlu-C20 diacid])LDSRAAQD[αMeF]VQ[Aib]IANT-NH2), the EC50 in experiment [1] (Table 10, peptides modified at position 13, CHO cells, read-out: hGLP-1R EC50) was 1040 pM; in experiment [2] (setting [4]), 8590 pM. Besides, the “% Relative Potency Ratio” value in experiment [1] (Table 10) is on record as 16.3.

As for `CC[C@H](C)[C@H](NC(=O)[C@H](Cc1c[nH]c2ccccc12)NC(=O)[C@H](CCCCNC(=O)CC[C@H](NC(=O)CC[C@H](NC(=O)CCOCCOCCNC(=O)CC[C@H](NC(=O)CC[C@H](NC(=O)CCCCCCCCCCCCCCCCCCC(=O)O)C(=O)O)C(=O)O)C(=O)O)C(=O)O)NC(=O)[C@@H](NC(=O)[C@H](Cc1ccccc1)NC(=O)[C@H](CC(=O)O)NC(=O)[C@H](CCC(N)=O)NC(=O)[C@H](C)NC(=O)[C@H](C)NC(=O)[C@H](CCC(N)=O)NC(=O)[C@H](CO)NC(=O)[C@H](CC(=O)O)NC(=O)[C@H](CC(C)C)NC(=O)[C@](C)(Cc1ccccc1)NC(=O)[C@H](CCCCN)NC(=O)[C@H](CO)NC(=O)[C@@H](NC(=O)[C@H](CC(=O)O)NC(=O)[C@H](CO)NC(=O)[C@@H](NC(=O)[C@](C)(Cc1ccccc1)NC(=O)[C@H](CO)NC(=O)CNC(=O)[C@H](Cc1c[nH]cn1)NC(=O)C(C)(C)NC(=O)[C@@H](N)Cc1c[nH]cn1)[C@@H](C)O)C(C)C)C(C)C)C(=O)N[C@@H](C)C(=O)N[C@@H](CC(N)=O)C(=O)N[C@H](C(N)=O)[C@@H](C)O` [Peptide 357], the “% Relative Potency Ratio” value in experiment [1] (Table 8) is reported as 1.2. Also, the EC50 stood at 917 pM in experiment [1] (hGLP-1R EC50 (pM), Table 8, peptides modified at position 24, CHO cells) and 550 pM in experiment [2] (hGluc-R EC50 (pM), Table 8, peptides modified at position 24, geometric mean, CHO cells).

On to `CC[C@H](C)[C@H](NC(=O)[C@H](Cc1c[nH]c2ccccc12)NC(=O)[C@H](CCCCNC(=O)COCCOCCNC(=O)COCCOCCNC(=O)CC[C@H](NC(=O)CC[C@H](NC(=O)CCCCCCCCCCCCCCCCCCC(=O)O)C(=O)O)C(=O)O)NC(=O)[C@@H](NC(=O)[C@H](Cc1ccccc1)NC(=O)[C@H](CC(=O)O)NC(=O)[C@H](CCC(N)=O)NC(=O)[C@H](C)NC(=O)[C@H](C)NC(=O)[C@H](CCCNC(=N)N)NC(=O)[C@H](CO)NC(=O)[C@H](CC(=O)O)NC(=O)[C@H](CC(C)C)NC(=O)[C@](C)(Cc1ccccc1)NC(=O)[C@H](CCCCN)NC(=O)[C@H](CO)NC(=O)[C@@H](NC(=O)[C@H](CC(=O)O)NC(=O)[C@H](CO)NC(=O)[C@@H](NC(=O)[C@](C)(Cc1ccccc1)NC(=O)[C@H](CO)NC(=O)CNC(=O)[C@H](Cc1c[nH]cn1)NC(=O)[C@H](CO)NC(=O)CNCc1c[nH]cn1)[C@@H](C)O)C(C)C)C(C)C)C(=O)N[C@@H](C)C(=O)N[C@@H](CC(N)=O)C(=O)N[C@H](C(N)=O)[C@@H](C)O` [Peptide 380] (H-[X3]SHGS[αMeF]TSDVSK[αMeF]LDSRAAQDFVK([AEEA-AEEA-γGlu-γGlu-C20 diacid])WIANT-NH2; N-terminus assumed), for which the EC50 in experiment [1] (Table 8, peptides modified at position 24, CHO cells, read-out: hGLP-1R EC50) was determined as 871 pM; in experiment [2] (Table 8, peptides modified at position 24, geometric mean, CHO cells, read-out: hGluc-R EC50) it was 14900 pM.
